Read-outs that look alike come from different tables or passages of the source.
Assay: Study 1 Part 1: ascending single-dose PK in healthy men
Type: in vivo, human
Conditions: for Tmax / AUC(0-inf) / AUC(0-t) / Cmax / Vd/F / half-life: male, human, plasma, oral; for Tmax: N = 6, read-out: tmax, median
Description: Study 1 was a 2-part single-center trial in healthy adult male volunteers.
Part 1 of the study enrolled and randomized 55 healthy men (placebo, n=14; 2-, 5-, 15, 25-, 50, and 100-mg doses, n=6 each; 150-mg dose, n=5). Eight healthy men participated in Part 2. […]

SMILES: CC(C)(NC(=O)O[C@@H]1CN2CCC1CC2)c1csc(-c2ccc(F)cc2)n1 [Compound 2, (S)-quinuclidin-3-yl 2-(2-(4-fluorophenyl)thiazol-4-yl)propan-2-ylcarbamate]
- CL/F, Geometric mean (CV) (2 mg single dose, N = 6): 6.3 (22.0) L/h
- CL/F, Geometric mean (CV) (5 mg single dose, N = 6): 5.8 (17.3) L/h
- CL/F, Geometric mean (CV) (15 mg single dose, N = 6): 5.6 (32.2) L/h
- CL/F, Geometric mean (CV) (25 mg single dose, N = 6): 5.0 (25.3) L/h
- tmax, median (25 mg single dose, N = 6): 5.00 h
- CL/F, Geometric mean (CV) (50 mg single dose, N = 6): 5.5 (34.9) L/h
- CL/F, Geometric mean (CV) (100 mg single dose, N = 6): 5.3 (23.4) L/h
- tmax, median (100 mg single dose, N = 6): 3.00 h
- CL/F, Geometric mean (CV) (150 mg single dose, N = 5): 5.6 (26.7) L/h
- Tmax (2 mg single dose): 3.5 h
- AUC(0-inf) (2 mg, 2 mg single dose, N = 6, read-out: AUCinf, Geometric mean (CV)): 237 ng·h/mL
- AUC(0-inf) (2 mg, 2 mg single dose, N = 6, read-out: AUCinf, Mean (SD)): 243 ng·h/mL
- AUC(0-t) (2 mg, 2 mg single dose, N = 6, read-out: AUClast, Geometric mean (CV)): 209 ng·h/mL
- AUC(0-t) (2 mg, 2 mg single dose, N = 6, read-out: AUClast, Mean (SD)): 214 ng·h/mL
- Cmax (2 mg, 2 mg single dose, N = 6, read-out: Cmax, Geometric mean (CV)): 5.6 ng/mL
- Cmax (2 mg, 2 mg single dose, N = 6, read-out: Cmax, Mean (SD)): 5.7 ng/mL
- Vd/F (2 mg, 2 mg single dose, N = 6, read-out: Vss/F, Geometric mean (CV)): 270 L
- Vd/F (2 mg, 2 mg single dose, N = 6, read-out: Vss/F, Mean (SD)): 275 L
- half-life (2 mg, 2 mg single dose, N = 6, read-out: t1/2, Geometric mean (CV) (converted)): 1730 min
- half-life (2 mg, 2 mg single dose, N = 6, read-out: t1/2, Mean (SD) (converted)): 1750 min
- Tmax (5 mg single dose): 5.5 h
- AUC(0-inf) (5 mg, 5 mg single dose, N = 6, read-out: AUCinf, Geometric mean (CV)): 643 ng·h/mL
- AUC(0-inf) (5 mg, 5 mg single dose, N = 6, read-out: AUCinf, Mean (SD)): 652 ng·h/mL
- AUC(0-t) (5 mg, 5 mg single dose, N = 6, read-out: AUClast, Geometric mean (CV)): 556 ng·h/mL
- AUC(0-t) (5 mg, 5 mg single dose, N = 6, read-out: AUClast, Mean (SD)): 560 ng·h/mL
- Cmax (5 mg, 5 mg single dose, N = 6, read-out: Cmax, Geometric mean (CV)): 14.6 ng/mL
- Cmax (5 mg, 5 mg single dose, N = 6, read-out: Cmax, Mean (SD)): 14.7 ng/mL
- Vd/F (5 mg, 5 mg single dose, N = 6, read-out: Vss/F, Geometric mean (CV)): 273 L
- Vd/F (5 mg, 5 mg single dose, N = 6, read-out: Vss/F, Mean (SD)): 274 L
- half-life (5 mg, 5 mg single dose, N = 6, read-out: t1/2, Geometric mean (CV) (converted)): 1950 min
- half-life (5 mg, 5 mg single dose, N = 6, read-out: t1/2, Mean (SD) (converted)): 2000 min
- Tmax (15 mg single dose): 3.5 h
- AUC(0-inf) (15 mg, 15 mg single dose, N = 6, read-out: AUCinf, Geometric mean (CV)): 1990 ng·h/mL
- AUC(0-inf) (15 mg, 15 mg single dose, N = 6, read-out: AUCinf, Mean (SD)): 2070 ng·h/mL
- AUC(0-t) (15 mg, 15 mg single dose, N = 6, read-out: AUClast, Geometric mean (CV)): 1760 ng·h/mL
- AUC(0-t) (15 mg, 15 mg single dose, N = 6, read-out: AUClast, Mean (SD)): 1830 ng·h/mL
- Cmax (15 mg, 15 mg single dose, N = 6, read-out: Cmax, Geometric mean (CV)): 50.7 ng/mL
- Cmax (15 mg, 15 mg single dose, N = 6, read-out: Cmax, Mean (SD)): 53 ng/mL
- Vd/F (15 mg, 15 mg single dose, N = 6, read-out: Vss/F, Geometric mean (CV)): 233 L
- Vd/F (15 mg, 15 mg single dose, N = 6, read-out: Vss/F, Mean (SD)): 245 L
- half-life (15 mg, 15 mg single dose, N = 6, read-out: t1/2, Geometric mean (CV) (converted)): 1740 min
- half-life (15 mg, 15 mg single dose, N = 6, read-out: t1/2, Mean (SD) (converted)): 1780 min
- AUC(0-inf) (25 mg, 25 mg single dose, N = 6, read-out: AUCinf, Geometric mean (CV)): 3690 ng·h/mL
- AUC(0-inf) (25 mg, 25 mg single dose, N = 6, read-out: AUCinf, Mean (SD)): 3810 ng·h/mL
